We go through ten molecules from ChEMBL document CHEMBL1201862, “PubChem BioAssay data set” (2004).

Test systems include SN12C; RXF 393; SNB-75; Malme-3M; MDA-MB-435; SW-620; OVCAR-5; NCI-H226; HCT-15; OVCAR-4; A549; BT-549; SF-268; UACC-62; UACC-257; U-251; MDA-N; NCI/ADR-RES; SK-MEL-28; SNB-19.
Common to all, as to assay: growth of human tumour cells (NCI), 48 h

Molecules are shown by their SMILES.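 Where inhibition never reached the appropriate level, the endpoint shown equals the highest concentration tested. Otherwise, values were interpolated linearly from a five-concentration, 48-hour dose response in 96-well plates. The concentration for 50% growth inhibition is given as GI50.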 Calls of active or inactive are those of the source. Cut-off read from the data, not from the text of the source: active = GI50 up to about 1.1 µM and inactive = higher.

Consider `CCOC(=O)C(NC(=O)c1ccccc1)(N1CCOCC1)C(F)(F)F` (stereo not given), for which the GI50 in the test on SN12C, in the test on RXF 393, in the test with SNB-75, in the test with Malme-3M, in the test on MDA-MB-435 and in the test with SW-620 was > 100 µM (inactive) in each case. Also, the GI50 is > 100 µM (inactive) in the test on OVCAR-5; > 100 µM (inactive) in the test with NCI-H226; > 100 µM in the test with HCT-15; > 100 µM (inactive) with OVCAR-4; > 100 µM (inactive) in the test with A549; > 100 µM (inactive) with BT-549. For the same molecule, the GI50 with SF-268, in the test with UACC-62, in the test on UACC-257, in the test with U-251, with MDA-N and with NCI/ADR-RES was > 100 µM (inactive) each time. Further, the GI50 in the test with SK-MEL-28 and in the test on SNB-19 was > 100 µM (inactive) throughout.

Turning to `COC(=O)C1C(=O)C(C(=O)OC)C2CCC1N2C` (stereo not given), the GI50 in the test with SN12C is 32.1 µM (inactive); with RXF 393, 24.9 µM (inactive); in the test on SNB-75 it was 35.2 µM (inactive); in the test on Malme-3M, 20.2 µM (inactive); with MDA-MB-435, 24.8 µM (inactive); in the test with SW-620, 36.5 µM (inactive). Besides, the GI50 in the test with OVCAR-5 was > 100 µM (inactive); in the test with NCI-H226, 36.2 µM (inactive); in the test with HCT-15 it was 1.84 µM; in the test with OVCAR-4, 39.8 µM (inactive); with A549 it was > 100 µM (inactive); in the test with BT-549, 0.628 µM (active). Also, the GI50 in the test with SF-268 is 96.6 µM (inactive); in the test with UACC-62, 40.3 µM (inactive); in the test on UACC-257, 83.4 µM (inactive); with U-251 it was 56.1 µM (inactive); in the test with MDA-N, 23.8 µM (inactive); with NCI/ADR-RES it was 48.6 µM (inactive). The results for the GI50 with SK-MEL-28 and in the test on SNB-19 were 34.4 µM (inactive) and > 100 µM (inactive), respectively.

For `O=C(NN=C1NCCCN1)c1ccco1`, the GI50 in the test on SN12C, in the test on RXF 393, in the test on SNB-75, in the test on Malme-3M, with MDA-MB-435 and in the test with SW-620 was > 100 µM (inactive) each time. Moreover, the GI50 in the test with OVCAR-5 was > 100 µM (inactive); in the test on NCI-H226, > 100 µM (inactive); in the test with HCT-15, > 100 µM; in the test on OVCAR-4 it was > 100 µM (inactive); in the test with A549, > 100 µM (inactive); with BT-549, > 100 µM (inactive). The GI50 in the test on SF-268, in the test with UACC-62, in the test on UACC-257, with U-251, in the test with MDA-N and with NCI/ADR-RES was > 100 µM (inactive) in each case. The GI50 with SK-MEL-28 and in the test on SNB-19 was > 100 µM (inactive) each time.

As to `COc1cc(Cc2cnc(N)nc2N)cc(OC)c1OCCCNc1ccc([N+](=O)[O-])cc1`, the GI50 was 16.3 µM (inactive) in the test on SN12C; 10.4 µM (inactive) with RXF 393; 16.2 µM (inactive) with SNB-75; 12.7 µM (inactive) with Malme-3M; 13.8 µM (inactive) with MDA-MB-435; 15.1 µM (inactive) with SW-620. Besides, the GI50 in the test on OVCAR-5 was 19 µM (inactive); in the test with NCI-H226 it was 13.4 µM (inactive); in the test on HCT-15, 14.6 µM; with OVCAR-4 it was 15.8 µM (inactive); with A549, 13 µM (inactive); with BT-549, 10.5 µM (inactive). For the same molecule, the GI50 in the test on SF-268 is 22.9 µM (inactive); with UACC-62, 12.9 µM (inactive); in the test on UACC-257, 11.9 µM (inactive); in the test with U-251 it was 13.7 µM (inactive); in the test on MDA-N, 16.2 µM (inactive); in the test on NCI/ADR-RES it was 18.6 µM (inactive). In addition, the GI50 in the test with SK-MEL-28 is 13.9 µM (inactive); with SNB-19 it was 12.8 µM (inactive).

Regarding `Cc1ccc(S(=O)(=O)N2CCN(S(=O)(=O)c3ccc(C)cc3)CCN(S(=O)(=O)c3ccc(C)cc3)Cc3cc(Br)c(Br)cc3CN(S(=O)(=O)c3ccc(C)cc3)CC2)cc1`, the GI50 in the test on SN12C was > 100 µM (inactive); in the test with RXF 393 it was > 100 µM (inactive); in the test with SNB-75 it was 55.6 µM (inactive); in the test on Malme-3M, 44.9 µM (inactive); in the test on MDA-MB-435 it was > 100 µM (inactive); in the test with SW-620, 97.7 µM (inactive). Besides, the GI50 in the test on OVCAR-5 was 92.3 µM (inactive); in the test on NCI-H226, 46.6 µM (inactive); with HCT-15 it was > 100 µM; with OVCAR-4, 44.1 µM (inactive); with A549, > 100 µM (inactive); in the test with BT-549, > 100 µM (inactive). In addition, the GI50 was > 100 µM (inactive) with SF-268; > 100 µM (inactive) with UACC-62; 37.2 µM (inactive) in the test on UACC-257; 82 µM (inactive) in the test on U-251; 66.8 µM (inactive) in the test on MDA-N; > 100 µM (inactive) in the test on NCI/ADR-RES. In addition, the figures for the GI50 in the test with SK-MEL-28 and with SNB-19 were > 100 µM (inactive) and 43.5 µM (inactive), respectively.

Consider `CC1(C)OC[C@@H](C[C@H](O)COCc2ccccc2)O1`, for which the GI50 in the test with SN12C, in the test on RXF 393, with SNB-75, in the test with Malme-3M, with MDA-MB-435 and in the test on SW-620 was > 100 µM (inactive) in each case. Further, the GI50 was > 100 µM (inactive) in the test with OVCAR-5; > 100 µM (inactive) in the test on NCI-H226; > 100 µM in the test on HCT-15; > 100 µM (inactive) in the test with OVCAR-4; > 100 µM (inactive) in the test on A549; > 100 µM (inactive) with BT-549. Besides, the GI50 with SF-268, in the test on UACC-62, in the test on UACC-257, in the test on U-251, with MDA-N and in the test on NCI/ADR-RES was > 100 µM (inactive) in each case. Moreover, the GI50 in the test with SK-MEL-28 and in the test with SNB-19 was > 100 µM (inactive) in each case.

For `CCn1c(SCC(=O)NNC(=S)Nc2ccc(Cl)cc2)nc2ccccc2c1=O`, the GI50 with SN12C was 47.5 µM (inactive); with RXF 393, 26.2 µM (inactive); with SNB-75, > 100 µM (inactive); in the test with Malme-3M, 42.2 µM (inactive); in the test with MDA-MB-435 it was 42.1 µM (inactive); with SW-620, 95.1 µM (inactive). The GI50 is > 100 µM (inactive) in the test with OVCAR-5; > 100 µM (inactive) in the test with NCI-H226; 38.5 µM with HCT-15; 40 µM (inactive) in the test on OVCAR-4; 40.6 µM (inactive) with A549; 31.8 µM (inactive) with BT-549. Moreover, the GI50 is 87.1 µM (inactive) in the test on SF-268; 35.2 µM (inactive) with UACC-62; 53.2 µM (inactive) in the test with UACC-257; 46.9 µM (inactive) with U-251; 55.3 µM (inactive) in the test on MDA-N; 47.1 µM (inactive) with NCI/ADR-RES. Besides, the GI50 in the test on SK-MEL-28 was 56.6 µM (inactive); in the test with SNB-19 it was > 100 µM (inactive).

As to `Cc1cc(C)nc(NC(=S)Nc2cccc(Cl)c2)c1`, the GI50 in the test with SN12C, in the test on RXF 393, in the test with SNB-75, with Malme-3M, with MDA-MB-435 and in the test with SW-620 was > 100 µM (inactive) throughout. The GI50 was > 100 µM (inactive) in the test on OVCAR-5; > 100 µM (inactive) with NCI-H226; > 100 µM in the test on HCT-15; > 36.6 µM (inactive) with OVCAR-4; 20.8 µM (inactive) with A549; > 100 µM (inactive) in the test on BT-549. In addition, the GI50 in the test on SF-268, in the test on UACC-62, in the test with UACC-257, in the test on U-251, with MDA-N and in the test with NCI/ADR-RES was > 100 µM (inactive) each time. Moreover, the GI50 with SK-MEL-28 and in the test with SNB-19 was > 100 µM (inactive) each time.

Take `COC(=O)[C@@]12CC3CN(Cc4c1[nH]c1ccccc41)C2CC3=O`: the GI50 was > 100 µM (inactive) in the test on SN12C; > 100 µM (inactive) in the test on RXF 393; 74.8 µM (inactive) in the test on SNB-75; > 100 µM (inactive) in the test on Malme-3M; > 100 µM (inactive) in the test with MDA-MB-435; > 100 µM (inactive) in the test on SW-620. The GI50 with OVCAR-5 was > 100 µM (inactive); in the test with NCI-H226 it was > 100 µM (inactive); with HCT-15, > 100 µM; in the test on OVCAR-4, > 100 µM (inactive); in the test on A549 it was > 100 µM (inactive); with BT-549, > 100 µM (inactive). Moreover, the GI50 in the test with SF-268, in the test with UACC-62, in the test on UACC-257, in the test with U-251, in the test on MDA-N and in the test on NCI/ADR-RES was > 100 µM (inactive) each time. Besides, the GI50 with SK-MEL-28 and in the test on SNB-19 was > 100 µM (inactive) each time.

Consider `Cc1cc(S(=O)(=O)Nc2nc(N)n(-c3ccccn3)n2)c(S)cc1Cl`, for which the GI50 with SN12C, in the test with RXF 393, in the test on SNB-75, with Malme-3M, in the test on MDA-MB-435 and with SW-620 was > 100 µM (inactive) each time. The GI50 with OVCAR-5 is > 100 µM (inactive); in the test with NCI-H226 it was > 100 µM (inactive); with HCT-15, > 100 µM; with OVCAR-4, > 100 µM (inactive); in the test with A549 it was > 100 µM (inactive); in the test with BT-549, > 100 µM (inactive). In addition, the GI50 with SF-268, in the test with UACC-62, with UACC-257, in the test on U-251, with MDA-N and with NCI/ADR-RES was > 100 µM (inactive) each time. Further, the GI50 with SK-MEL-28 and with SNB-19 was > 100 µM (inactive) in each case.
